From patent US8722930B2, “Protease inhibitors” (Orion Corporation, priority 2009, dated 2014)
pEC50, pIC50: −log10 of the molar value. Like-named read-outs stand apart in the source and are kept apart here.

What was measured:
[1] = biological target: T1, Factor Xa (Homo sapiens, UniProt P00742); experiment: Factor Xa enzymatic assay (selectivity screening); assay type: biochemical; conditions: for Factor Xa Inhibition (%): % Inhibition at 5 μM
T1 construct: uPA, Factor Xa, thrombin, plasmin and trypsin (Sigma, USA); purchased Sigma, USA
T1 sequence (P00742 235-488 limits assumed): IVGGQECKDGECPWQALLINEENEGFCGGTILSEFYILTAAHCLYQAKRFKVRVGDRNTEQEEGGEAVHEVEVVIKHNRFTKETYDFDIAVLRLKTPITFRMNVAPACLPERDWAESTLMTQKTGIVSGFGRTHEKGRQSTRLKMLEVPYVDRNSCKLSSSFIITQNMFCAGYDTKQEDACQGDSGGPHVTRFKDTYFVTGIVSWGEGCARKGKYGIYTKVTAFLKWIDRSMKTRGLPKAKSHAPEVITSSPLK
T1 sequence (P00742 41-179 partner limits assumed): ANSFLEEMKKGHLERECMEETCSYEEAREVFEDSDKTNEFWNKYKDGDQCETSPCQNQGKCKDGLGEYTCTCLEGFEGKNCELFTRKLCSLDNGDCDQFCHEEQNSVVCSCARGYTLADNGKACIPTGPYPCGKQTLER
Text: (§1) Purified recombinant matriptase was used in a fluorescence-based screening assay using Gln-Ala-Arg peptide as a substrate. In this assay the cleavage of AMC from Boc-Gln-Ala-Arg-7-amido-4 methylcoumarin hydrochloride (Boc-Gln-Ala-Arg-AMC) (Sigma, USA) was monitored by measuring the increase in fluorescence intensity of AMC released upon proteolytic cleavage at 480 nm (kex=360 nm). Similarly, enzymatic assays in fluorimetric or colorimetric format for uPA, Factor Xa, thrombin, plasmin and trypsin (Sigma, USA) were established using substrates pyroGlu-Gly-Arg-pNA.HCl, Boc-Gln-Ala-Arg-AMC, CH3OCO-D-CHA-Gly-Arg-PNA.AcoH, Pyro Glu-Phe-Lys—pNA.HCl and Boc-Gln-Ala-Arg-AMC, respectively.

[2] = system: DU145 cells; experiment: Cytotoxicity, Calcein AM assay, DU145; assay type: cell-based; conditions: four days of incubation; for viability at 10 µM: Homo sapiens, DU-145, 96 h, read-out: Cell survival at 10 μM (%)
Method: Cytotoxicity of the compounds was tested in cell lines or primary cells using Calcein AM assay. This assay measures cell viability by quantitation of cleaved fluorescent product of a cell permeable substrate that is retained in the cytoplasm of cells with uncompromised cytoplasmic membrane integrity. The cells were seeded into 96-well plate and allowed to adhere for a day followed by addition of compound at several different concentrations. After four days of incubation with the compound, media was removed from the cells followed by addition of PBS and addition of Calcein AM reagent at 1 μM final concentration. The cells were then allowed to incubate at 37° C. for half an hour followed by reading on the fluorimeter. Percent viability was calculated based on fluorescence value obtained at 485/520 nm with cut off at 495 nm.

[3] = system: DU145 cells; experiment: Migration assay in transwell chambers; assay type: cell-based; conditions: for inhibition at 10 µM: Homo sapiens, DU-145, 24 hours
Method: Migration assays were performed to determine the effect of matriptase inhibitors on cell motility. Cells were seeded with 10 μM test compound into transwell chambers and allowed to migrate for 24 hours using a combination of 10% FBS and 5 μg/ml fibronectin as chemoattractant.

[4] = biological target: T2, uPA (Homo sapiens, UniProt P00749); experiment: uPA enzymatic assay (selectivity screening); assay type: biochemical; conditions: for uPA Inhibition (%): % Inhibition at 5 μM
T2 construct: purchased Sigma, USA
Text: as §1

[5] = system: DU145 cells; experiment: Cell invasion assay (matrigel transwell); assay type: cell-based; conditions: for inhibition at 10 µM: Homo sapiens, DU-145, 48 hours
Method: Cell invasion assays were done for quantitating the degree to which invasive cells penetrate a barrier essentially as in migration assay but with the use of matrigel consisting of basement membrane components in the transwell inserts and incubating for 48 hours. The barrier used was matrigel. This was followed by fixing and staining of the transwell insert with 0.5% crystal violet in 25% methanol in order to visualize cells migrated.

[6] = biological target: T3, plasmin (Homo sapiens, UniProt P00747); experiment: Plasmin enzymatic assay (selectivity screening); assay type: biochemical; conditions: for Plasmin Inhibition (%): % Inhibition at 5 μM
T3 construct: uPA, Factor Xa, thrombin, plasmin and trypsin (Sigma, USA); purchased Sigma, USA
T3 sequence (P00747 581-810 limits assumed, species assumed): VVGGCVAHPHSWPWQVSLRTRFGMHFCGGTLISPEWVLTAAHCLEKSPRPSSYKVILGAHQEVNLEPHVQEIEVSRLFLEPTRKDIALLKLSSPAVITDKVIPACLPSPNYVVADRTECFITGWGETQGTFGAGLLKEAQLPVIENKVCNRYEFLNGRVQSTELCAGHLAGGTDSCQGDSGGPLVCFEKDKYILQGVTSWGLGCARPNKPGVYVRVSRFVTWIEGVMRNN
T3 sequence (P00747 97-580 partner limits assumed, species assumed): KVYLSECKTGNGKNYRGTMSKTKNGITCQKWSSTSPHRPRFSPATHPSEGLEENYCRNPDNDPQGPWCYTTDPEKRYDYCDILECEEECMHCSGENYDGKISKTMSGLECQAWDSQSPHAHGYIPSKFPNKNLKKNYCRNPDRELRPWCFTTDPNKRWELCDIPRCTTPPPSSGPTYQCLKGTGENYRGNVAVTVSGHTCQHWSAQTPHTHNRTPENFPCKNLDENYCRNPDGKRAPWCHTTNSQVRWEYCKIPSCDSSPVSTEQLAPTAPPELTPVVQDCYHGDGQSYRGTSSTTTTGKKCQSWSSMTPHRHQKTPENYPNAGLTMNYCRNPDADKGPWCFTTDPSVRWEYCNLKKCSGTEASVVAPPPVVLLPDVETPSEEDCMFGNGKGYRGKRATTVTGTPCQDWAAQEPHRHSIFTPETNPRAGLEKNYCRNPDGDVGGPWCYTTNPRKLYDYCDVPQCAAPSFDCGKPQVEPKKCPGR
Text: as §1

[7] = system: DU145 cells; experiment: Soft agar colony formation assay; assay type: cell-based; conditions: Homo sapiens, DU-145, 504 h, about three weeks, read-out: EC50 for inhibition of soft agar colony formation
Method: Soft agar colony formation assays were performed to measure the long-term survival and anchorage-independent growth capacity of tumor cells. DU145 cells were seeded in 0.7% nutrient agar with the test compound on an underlay of 1.4% nutrient agar in a six well plate. On the day following cell seeding, liquid cell culture medium containing the compound was added to the well to prevent the agar from drying out and was changed regularly till the completion of the experiment. The cells were allowed to form colonies for a period of about three weeks following which the colonies were stained with 0.005% solution of crystal violet in 25% methanol. The colonies were counted under a dissecting microscope.

[8] = biological target: T4, Purified recombinant matriptase (Homo sapiens, UniProt Q9Y5Y6); experiment: Matriptase fluorescence-based enzymatic assay (Boc-Gln-Ala-Arg-AMC cleavage); assay type: biochemical
T4 sequence (Q9Y5Y6 1-855): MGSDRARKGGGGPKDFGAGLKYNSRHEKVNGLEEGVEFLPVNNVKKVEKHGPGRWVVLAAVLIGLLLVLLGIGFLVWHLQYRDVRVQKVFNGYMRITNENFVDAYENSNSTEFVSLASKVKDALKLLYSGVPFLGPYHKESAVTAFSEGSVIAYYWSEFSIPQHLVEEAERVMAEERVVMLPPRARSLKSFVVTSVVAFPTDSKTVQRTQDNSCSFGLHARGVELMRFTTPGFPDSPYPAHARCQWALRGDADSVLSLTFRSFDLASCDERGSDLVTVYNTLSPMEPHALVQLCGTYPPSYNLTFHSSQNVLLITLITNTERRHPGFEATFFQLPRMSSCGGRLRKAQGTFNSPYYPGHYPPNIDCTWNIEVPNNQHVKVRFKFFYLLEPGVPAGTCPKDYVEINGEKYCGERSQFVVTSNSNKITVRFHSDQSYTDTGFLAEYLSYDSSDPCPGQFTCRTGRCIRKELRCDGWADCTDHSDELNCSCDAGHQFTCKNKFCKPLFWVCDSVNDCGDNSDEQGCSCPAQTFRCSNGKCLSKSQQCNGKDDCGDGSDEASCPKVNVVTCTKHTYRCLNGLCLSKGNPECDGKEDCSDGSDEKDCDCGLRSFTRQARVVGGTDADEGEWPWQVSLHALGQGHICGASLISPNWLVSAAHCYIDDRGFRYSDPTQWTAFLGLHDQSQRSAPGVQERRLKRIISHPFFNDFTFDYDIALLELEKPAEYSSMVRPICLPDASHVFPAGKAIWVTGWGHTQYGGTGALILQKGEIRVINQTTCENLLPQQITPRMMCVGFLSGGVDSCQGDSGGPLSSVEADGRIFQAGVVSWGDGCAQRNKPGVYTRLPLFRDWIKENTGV
Text: as §1

[9] = biological target: T5, thrombin (Homo sapiens, UniProt P00734); experiment: Thrombin enzymatic assay (selectivity screening); assay type: biochemical; conditions: for Thrombin Inhibition (%): % Inhibition at 5 μM
T5 construct: uPA, Factor Xa, thrombin, plasmin and trypsin (Sigma, USA); purchased Sigma, USA
Text: as §1

[10] = system: trypsin; experiment: Trypsin enzymatic assay (selectivity screening); assay type: biochemical; conditions: % Inhibition at 5 μM
Text: as §1

[11] = Table 1, read-out: Matriptase Inhibition IC50
[12] = Table 2, read-out: Matriptase IC50

Row | inhibition at 5 µM [1] [%] | inhibition at 5 µM [4] [%] | inhibition at 5 µM [6] [%] | pEC50 [7] | pIC50 [8, 11] | pIC50 [8, 12] | inhibition at 5 µM [9] [%] | Factor Xa Inhibition (%) [1] [%] | uPA Inhibition (%) [4] [%] | Plasmin Inhibition (%) [6] [%] | Thrombin Inhibition (%) [9] [%] | Molecule | viability at 10 µM [2] [%] | inhibition at 10 µM [3] [%] | inhibition at 10 µM [5] [%] | Trypsin Inhibition (%) [10] [%] | Cell survival at 10 μM (%) [2] [%] | Inhibition of migration at 10 μM (%) ([3]; 24 hours) | Inhibition of invasion at 10 μM (%) ([5]; 48 hours) | pIC50 [8]
1 | 52 | 23 | 25 | 6.15 | 6.42 | 6.91 | 41 | – | – | – | – | N=C(N)c1ccc(Oc2cc(OCc3ccc(Br)cc3)cc(C(=O)NC3CCC(N)CC3)c2)cc1 (centres unmarked) [Example 51, N-(4-Aminocyclohexyl)-3-(4-bromobenzyloxy)-5-(4-carbamimidoylphenoxy)benzamide] | 93 | -4 | 61 | – | – | – | – | –
2 | 94 | 10 | 50 | – | 7.54 | – | 57 | – | – | – | – | N=C(N)c1ccc(Oc2cc(OCc3cccc(C(=N)N)c3)cc(C(=O)N3CCC(CCN)CC3)c2)cc1 [Example 57, 2-{1-[3-(3-Carbamimidoyl-benzyloxy)-5-(4-carbamimidoyl-phenoxy)-benzoyl]-piperidin-4-yl}-ethylamine] | – | – | – | 74 | – | – | – | –
3 | 71 | -1 | 18 | 6.05 | 7.42 | 7.42 | 3 | – | – | – | – | N=C(N)c1ccc(Oc2cc(OCc3cccc(CN)c3)cc(C(=O)NC3CCC(N)CC3)c2)cc1 (centres unmarked) [Example 47, N-(4-Aminocyclohexyl)-3-(3-aminomethylbenzyloxy)-5-(4-carbamimidoylphenoxy)benzamide] | 100 | 39 | 63 | – | – | – | – | –
4 | – | – | – | – | 6.50 | 6.51 | – | 69 | 10 | 69 | 67 | 1-[3,5-Bis-(4-carbanimidoyl-phenoxy)-benzoyl]-nonahydro-quinoline [Example 35] | – | – | – | – | 78 | 18 | 75 | –
5 | 73 | 7 | 42 | 7.00 | 7.46 | 7.46 | 70 | – | – | – | – | N=C(N)c1ccc(COc2cc(Oc3ccc(C(=N)N)cc3)cc(C(=O)N3CCC(CCN)CC3)c2)cc1 [Example 58, 2-{1-[3-(4-carbamimidoyl-benzyloxy)-5-(4-carbamimidoyl-phenoxy)benzoyl]-piperidin-4-yl}ethylamine] | 100 | 63 | 91 | – | – | – | – | –
6 | – | – | – | – | 8.15 | – | – | 97 | 14 | 30 | 47 | N=C(N)c1cccc(COc2cc(NC(=O)C3CCC(N)CC3)cc(OCc3cccc(C(=N)N)c3)c2)c1 (centres unmarked) [Example 119, 4-Amino-cyclohexanecarboxylic acid[3,5-bis-(3-carbamimidoyl-benzyloxy)-phenyl]-amide] | – | – | – | 77 | – | – | – | –
7 | – | – | – | – | 8.40 | – | – | 81 | 23 | 61 | 49 | N=C(N)c1ccc(Oc2cc(NC(=O)[C@H]3CC[C@H](N)CC3)cc(Oc3ccc(C(=N)N)cc3)c2)cc1 [Example 108, Trans-4-amino-cyclohexanecarboxylic Acid[3,5-bis-(4-carbamimidoyl-phenoxy)-phenyl]-amide] | – | – | – | 76 | – | – | – | –
8 | 92 | 25 | 58 | – | 8.70 | – | 44 | – | – | – | – | N=C(N)c1ccc(Oc2cc(Oc3ccc(C(=N)N)cc3)cc(C(=O)OC3CCC(N)CC3)c2)cc1 (centres unmarked) [Example 103, 3,5-Bis-(4-carbamimidoyl-phenoxy)-benzoic acid 4-amino-cyclohexyl Ester] | – | – | – | 92 | – | – | – | –
9 | 86 | 11 | 10 | – | 7.88 | 7.89 | 33 | – | – | – | – | Cc1cc(Oc2cc(Oc3ccc(C(=N)N)cc3)cc(C(=O)NC3CCC(N)CC3)c2)ccc1C(=N)N (centres unmarked) [Example 74, N-(4-Aminocyclohexyl)-3-(4-carbamimidoyl-3-methylphenoxy)-5-(4-carbamimidoylphenoxy)benzamide] | 95 | 18 | 45 | 28 | – | – | – | –

Row | Molecule | inhibition at 5 µM [1] [%] | inhibition at 5 µM [4] [%] | inhibition at 5 µM [6] [%] | pEC50 [7] | pIC50 [8, 11] | pIC50 [8, 12] | inhibition at 5 µM [9] [%] | Factor Xa Inhibition (%) [1] [%] | uPA Inhibition (%) [4] [%] | Plasmin Inhibition (%) [6] [%] | Thrombin Inhibition (%) [9] [%] | viability at 10 µM [2] [%] | inhibition at 10 µM [3] [%] | inhibition at 10 µM [5] [%] | Trypsin Inhibition (%) [10] [%] | Cell survival at 10 μM (%) [2] [%] | Inhibition of migration at 10 μM (%) ([3]; 24 hours) | Inhibition of invasion at 10 μM (%) ([5]; 48 hours) | pIC50 [8]
10 | N=C(N)c1ccc(Oc2cc(C(=O)NC3CCC(N)CC3)cc(Oc3ccc(C(=N)N)cc3)n2)cc1 (centres unmarked) [Example 13, N-(4-Amino-cyclohexyl)-2,6-bis-(4-carbamimidoyl-phenoxy)-isonicotinamide] | 84 | 13 | 33 | 6.30 | – | – | 28 | – | – | – | – | – | – | – | 92 | – | – | – | 7.70
11 | N=C(N)CCCCOc1cc(Oc2ccc(C(=N)N)cc2)cc(C(=O)NC2CCC(N)CC2)c1 (centres unmarked) [Example 65, N-(4-Aminocyclohexyl)-3-(4-carbamimidoylbutoxy)-5-(4-carbamimidoyl-phenoxy)-benzamide] | 63 | 4 | 5 | – | 7.77 | 7.80 | 27 | – | – | – | – | 96 | 7 | 88 | – | – | – | – | –
12 | N=C(N)c1ccc(Oc2cc(NC(=O)C3CCN(CCO)CC3)cc(Oc3ccc(C(=N)N)cc3)c2)cc1 [Example 111, 1-(2-Hydroxy-ethyl)-piperidine-4-carboxylic acid[3,5-bis-(4-carbamimidoyl-phenoxy)-phenyl]-amide] | – | – | – | – | 7.54 | – | – | 74 | 17 | 46 | 44 | – | – | – | 63 | – | – | – | –
13 | 2-[3,5-Bis-(4-carbanimidoyl-phenoxy)-benzoyl]-nonahydro-isoquinoline [Example 37] | – | – | – | – | 6.32 | – | – | 67 | 13 | 65 | 74 | – | – | – | 84 | – | – | – | –
